The text below walks through data of ChEMBL document CHEMBL3507680, “University of Dundee, Gates Library screen for HepG2 cell viability”.

The nature of this series: Human HepG2 cell viability assay in 384 well format. The series is classed as toxicity, cell-based. On the set-up: dose 125 nL, time 70.5 hour; cytotoxicity at 70.5 h: concentration not given beside the values. The following applies: HepG2 cells, read-out: Inhibition.

Molecules are shown by their SMILES.

In the case of `Cc1cc(C)n(CC(=O)N2CCC(Nc3cccnn3)CC2)n1`, the cytotoxicity at 70.5 h was -5.61%. For `O=C(CC1=CCCCC1)Nc1ncn(CC(=O)N2CCCCCC2)n1`, the cytotoxicity at 70.5 h is -6.09%. The result for `CN(C(=O)NCc1ccncc1)C1CCCN(c2ccccc2)C1=O` (centres undefined) reads -4.3%; that for `CC(=O)Nc1ccc(-n2cncn2)c(F)c1`, -2.56%. In the case of `Cc1nnc2n1CCN(CC(=O)N1CCc3ccccc3C1)C2`, the cytotoxicity at 70.5 h amounted to 49.9%. For `CCCc1nc(CNCC2CCCN2c2cccnn2)cs1` (centres undefined), the cytotoxicity at 70.5 h was 11.9%.

As for `CCc1nnc2n1CCN(CC(=O)N1CCc3ccccc3C1)C2`, the cytotoxicity at 70.5 h was 28.5%. In the case of `Cc1ncsc1C(=O)N(C)Cc1ccccc1`, the cytotoxicity at 70.5 h was -4.43%. Regarding `c1cnnc(N2CCCC2CNCc2csc(-c3ccco3)n2)c1` (centres undefined), the cytotoxicity at 70.5 h was -11.5%. Regarding `c1ccc(Cc2noc(CN3CCCCC3Cn3cncn3)n2)cc1` (centres undefined), the cytotoxicity at 70.5 h came out at 11.2%.

Consider `O=C(Cn1nc(-c2ccc(F)cc2)oc1=O)NCc1ccncc1`, for which the cytotoxicity at 70.5 h is -12.1%. In the case of `Cc1ncsc1C(=O)NCc1ccnc(OCC(F)(F)F)c1`, the cytotoxicity at 70.5 h is -11.3%.

Regarding `Cc1cc(C(=O)NCc2ccnc(OCC(F)(F)F)c2)on1`, the cytotoxicity at 70.5 h worked out at 16.2%. The result for `Cc1cc(C)n(-c2ccc(CNCc3ccc(F)c(F)c3)cn2)n1` reads 2.51%; that for `Cc1cc(C)n(-c2ccc(CNCc3cccc(C#N)c3)cn2)n1`, -12.6%. With `Cc1ccc(C(=O)N2CCC(Oc3cccc(C)c3C)CC2)c(=O)[nH]1`, the cytotoxicity at 70.5 h is -4.54%. The result for `Cc1ccc(C(=O)N2CCC(Oc3c(C)cccc3C)CC2)c(=O)[nH]1` reads 0.338%; that for `O=C(Nc1ccccn1)N(CCO)Cc1ccccc1Br`, -2.33%; that for `Cn1cc(-c2nc(CN3CCN(c4nccs4)CC3)cs2)cn1`, -5.83%.

As to `Cc1cc(C)n(CC2CN(c3nnc(C)c(C)c3C#N)CCO2)n1` (centres undefined), the cytotoxicity at 70.5 h was -3.24%. The result for `Cc1nnc(N2CCOC(CN(C)C)C2)c(C#N)c1C` (centres undefined) reads -6.93%; that for `NC(=O)c1cnn2c1NCC(CNCCCc1ccccc1)C2` (centres undefined), -6.83%; that for `Cc1cc(NC(=O)N(CCO)Cc2ccsc2)no1`, -4.98%.

As to `c1cnn(CC2CCCCN2Cc2noc(C3CC3)n2)c1` (centres undefined), the cytotoxicity at 70.5 h was -6.47%.

On to `NC(=O)c1cnn2c1NCC(CNCCc1cccs1)C2` (centres undefined), for which the cytotoxicity at 70.5 h was -5.82%. Next, `CCc1ccc(C(=O)NC2CCc3nc(C)cn3C2)o1` (centres undefined): -4.82%; `Cc1nnc(N2CCOC(C)C2)c(C#N)c1C` (centres undefined): -8.59%; `CN1CCCC1CNC(=O)CCCOc1cccc(F)c1` (centres undefined): 5.1%. As for `Cc1cc(C)c2c(c1)C(NCc1c(C)nn(C)c1N(C)C)CCO2` (centres undefined), the cytotoxicity at 70.5 h stood at 3.6%.

As to `COc1c(CNC(c2cccc(F)c2)c2nccn2C)c(C)nn1C` (centres undefined), the cytotoxicity at 70.5 h was 19%. As for `Cc1nc2ccccc2c(=O)n1CCC(=O)N1CCCC1`, the cytotoxicity at 70.5 h is -6.75%. Consider `Cc1nc2ccccc2c(=O)n1CCC(=O)N1CCCCCC1`, for which the cytotoxicity at 70.5 h was 1.78%. On to `Cc1ccc(C(=O)Nc2cn[nH]c2)cc1F`, for which the cytotoxicity at 70.5 h is 13.5%. As to `CC(C)c1noc(CCC(=O)NC(C)c2ccccn2)n1` (centres undefined), the cytotoxicity at 70.5 h is -1.62%. As for `Cn1cc(C(=O)N2CCN(Cc3ccsc3)CC2)cn1`, the cytotoxicity at 70.5 h came out at 14.2%. On to `COC1CCN(C(=O)Cc2csc(-c3ccc(F)cc3)n2)CC1`, for which the cytotoxicity at 70.5 h worked out at 0.103%. As for `Cc1ccc(C(=O)N(C)Cc2ccc3c(c2)OCCO3)c(=O)[nH]1`, the cytotoxicity at 70.5 h is 18.5%. Next, `Cc1nn(C)c(N(C)C)c1CNC1CCOc2ccccc21` (centres undefined): 1.15%. Turning to `CN1CCCC1CNC(=O)CCCOc1ccc(I)cc1` (centres undefined), the cytotoxicity at 70.5 h is -0.485%. Consider `CN1CCCC1CNC(=O)CCOc1ccc(Cl)cc1` (centres undefined), for which the cytotoxicity at 70.5 h was -2.08%.

With `COc1c(CNC(c2ccccc2)c2ccc(F)cc2)c(C)nn1C` (centres undefined), the cytotoxicity at 70.5 h amounted to 24%. Take `CNc1nc(CNC(=O)Nc2cc(Cl)ccc2F)cs1`: the cytotoxicity at 70.5 h is -2.3%. With `CNc1nc(CNC(=O)Nc2cccc(C)c2Cl)cs1`, the cytotoxicity at 70.5 h was -1.43%. Turning to `COC(=O)NCCC(=O)NC(C)Cc1cccc(Br)c1` (centres undefined), the cytotoxicity at 70.5 h was 2.65%. The result for `CC(C)NC(=O)CN1CCC(c2cccc(F)c2)C1` (centres undefined) reads 22.8%; that for `CCOCC(O)CN1CCN(C(=O)Cc2ccc3c(c2)CCC3)CC1` (centres undefined), 53.8%; that for `O=C(CSc1ccc(Br)cc1)NS(=O)(=O)c1ccc2c(c1)OCCO2`, 4.15%.

Consider `COCC(c1cccc(C(F)(F)F)c1)N(C)C(=O)c1ccccn1` (centres undefined), for which the cytotoxicity at 70.5 h was -4.66%. For `CCC(O)CN1CCN(C(=O)Cc2ccc(C)nc2)CC1` (centres undefined), the cytotoxicity at 70.5 h is -0.788%. Regarding `CC(C(=O)N1CCCN(Cc2ccc(C#N)cc2)CC1)n1cccn1` (centres undefined), the cytotoxicity at 70.5 h was determined as 1.6%.

Take `Cc1cccc(-c2nc(C)nn2CC(=O)NC2CCCC2)c1`: the cytotoxicity at 70.5 h was 3.32%. In the case of `Cc1cc(C)n(CC2CN(CC(=O)NC3CCCC3)CCO2)n1` (centres undefined), the cytotoxicity at 70.5 h was determined as 18.5%.

Turning to `CCc1nnc2n1CCN(C(=O)c1cc3ccc(F)cc3nc1C)C2`, the cytotoxicity at 70.5 h is -3.67%. Regarding `Cc1cc(CN2CCN(c3ccc4nncn4n3)C(C)C2)no1` (centres undefined), the cytotoxicity at 70.5 h was 5.04%. With `COc1ccc(CNC2CCCN(Cc3noc(C)n3)C2)cc1F` (centres undefined), the cytotoxicity at 70.5 h was found to be 23.4%. As for `COc1ccc(-n2ccc(C(=O)N3CCN(C)CC3C)n2)cc1` (centres undefined), the cytotoxicity at 70.5 h was -5.83%.

Regarding `Cc1cccc(-c2nc(C)nn2CC(=O)N(C)C2CC2)c1`, the cytotoxicity at 70.5 h was -5.01%. Consider `O=C(Cc1cccc(F)c1)NCCNCc1ccc2c(c1)CCO2`, for which the cytotoxicity at 70.5 h was 6.87%. In the case of `Cc1ccc(-c2nc(CNC3CCc4ncnn4C3)co2)c(C)c1` (centres undefined), the cytotoxicity at 70.5 h is 1.75%. Turning to `O=C(Cc1cccc(F)c1)NCCNCc1ccco1`, the cytotoxicity at 70.5 h amounted to 19.4%. `COc1ccc(CCN2CCC(N3CCN(C)C3=O)CC2)cc1`: the cytotoxicity at 70.5 h is -8.36%. Turning to `Cc1nc(C)n(C2CCCN(C(=O)Cc3n[nH]c4ccccc34)C2)n1` (centres undefined), the cytotoxicity at 70.5 h is 1.52%. Next, `Cn1ccc(CN2CCC(OCCc3ccccc3)CC2)cc1=O`: -5.72%. Next, `CCc1nc(C2CCCN2CC(=O)Nc2sc(C)c(C)c2C)no1` (centres undefined): -5.03%; `Cc1nc(C)n(C2CCCN(C(=O)COCc3ccccc3)C2)n1` (centres undefined): -0.931%; `O=C(Cc1cccc(F)c1)NCCNCc1cccc(O)c1`: 0.873%.

With `Cn1ccnc1COc1ccc(CN2CCN(CCO)CC2)cc1`, the cytotoxicity at 70.5 h amounted to 15%. On to `CC(NC(=O)Cn1cccn1)c1ccc2c(c1)OCCCO2` (centres undefined), for which the cytotoxicity at 70.5 h stood at 52.1%. With `Cn1ccnc1COc1ccc(CO)cc1`, the cytotoxicity at 70.5 h is -6.37%. In the case of `O=C(NCC1CCOC1)c1cc(-c2cccc(Cl)c2)on1` (centres undefined), the cytotoxicity at 70.5 h is -5.03%. For the compound `O=C(NCC1CCOC1)c1csc(-c2ccco2)n1` (centres undefined), the cytotoxicity at 70.5 h came to 21.2%. Turning to `Cc1cc(C(=O)N2CCCCC2C)ccc1NCC(=O)N1CCOCC1` (centres undefined), the cytotoxicity at 70.5 h was found to be 26.9%. Turning to `CC(C)C(Sc1nnnn1-c1ccccc1)C(=O)NCc1cccnc1` (centres undefined), the cytotoxicity at 70.5 h was -2.05%.

`CCCNC(=O)CNc1ccc(C(=O)N2CCCCC2C)cc1C` (centres undefined): the cytotoxicity at 70.5 h was -2.88%.
